# Measurements: US20070178054A1, “ORAL ANTIMICROBIAL COMPOSITION” (priority 2005, published 2007)
# Experiments:
# Type in all cases: cell-based, Streptococcus mutans
# S. mutans UA159 [1] = experiment: S. mutans growth in 96-well microtiter plate (OD 600 nm); settings: 24 h, E2 20 μg/ml, combination of both
# Protocol: (§1) Streptococcus mutans UA159 strain was used in these Examples. S. mutans strain UA159 was grown in Todd-Hewitt broth containing 0.3% yeast extract (THYE) at pH 7.0 and was subcultured routinely on THYE agar plates and incubated at 37° C. in an anaerobic chamber (5% CO2). In liquid media, cultures were incubated in closed screw-cap tubes without agitation at 37° C. in an anaerobic chamber (5% CO2)
# (§2) Wells without cells were used as blank controls.
# (§3) The microtiter plates were then incubated at 37° C. in an anaerobic chamber (5% CO2) for 24 hours without agitation. After the incubation, the growth was measured at 600 nm with a microplate reader. The planktonic cells were carefully removed, and plates were air dried overnight. The plates were then stained with 0.4% crystal violet for 10 minutes, rinsed with sterile distilled water and air dried for 15 minutes. Biofilm was quantified by measuring the absorbance of stained biofilm at 630 nm with a microplate reader.
# S. mutans UA159 [2] = experiment: S. mutans biofilm formation, crystal violet staining (OD 630 nm); settings: 24 h, E2 20 μg/ml, combination of both
# Protocol: as §1, §2, §3
# [3] = tested on: biofilm-embedded S. mutans; experiment: Survival of biofilm-embedded S. mutans (CFU counts), CSP compositions, 12-well plates; settings: 20 h biofilm, combination of both
# Protocol: as §1
# (§4) Biofilms were developed in 12-well polystyrene microtiter plates to provide a rapid and simple method for assaying biofilm-embedded live oral bacteria (e.g. S. mutans). A 4× diluted THYE medium supplemented with final concentration of 0.01% hog gastric mucin (Sigma) was used as biofilm medium (BM). Fonnation of biofilms was initiated by inoculating 20 μl of S. mutans cell suspension (1.2×10^7 CFU/ml) into each well containing 2 ml of BM and four wells were set up: two for control and two for treatment with compositions comprising synthetic CSP and Nisin or chlorhexidine or xylitol or triclosan or citric acid or zinc citrate or sodium fluoride or oleanolic acid or lansoprazole or epigallocatechin gallate or chitosan. After cultures were incubated at 37° C. for 20 hours under an anaerobic condition, fluid media were removed. The wells were rinsed once with 10 mM PBS buffer (pH 7.2) and biofilm-embedded cells were collected in two ml PBS buffer, gently sonicated for 15 seconds, serially diluted, spread on THYE plates, and incubated at 37° C. under anaerobic conditions. Biofilm-embedded viable cells were quantified by colony forming unit (CFU) counts after 48 hours of incubation.
# [4] = tested on: biofilm-embedded S. mutans; experiment: Survival of biofilm-embedded S. mutans (CFU counts), E2 peptide compositions, 12-well plates; settings: 20 h biofilm, E2 20 μg/ml, combination of both
# [5] = tested on: biofilm-embedded S. mutans; experiment: as above; settings: 20 h biofilm, E2 20 μg/ml, combination of both; remark: listed apart in the source
# Protocol: as §1
# as §4, with “developed on” for “developed in”, “mucin (Sigma, St. Louis, Mo.)” for “mucin (Sigma)”, “(BM). Formation” for “(BM). Fonnation”, “synthetic E2 peptide” for “synthetic CSP”, “or E2 and CHX.” for “or chlorhexidine or xylitol or triclosan or citric acid or zinc citrate or sodium fluoride or oleanolic acid or lansoprazole or epigallocatechin gallate or chitosan.”, “fluid medium was” for “fluid media were”
# [6] = CSP 40 μg/ml, zinc citrate 1200 μg/ml, control 8 × 10^5
# [7] = lansoprazole 0.1 mM, control 0.38
# [8] = lansoprazole 0.1 mM, control 1.32
# [9] = CSP 40 μg/ml, lansoprazole 37 μg/ml, control 1.2 × 10^6
# [10] = lansoprazole 37 μg/ml, control 8
# [11] = CSP 50 μg/ml, nisin 80 μg/ml, control 1.6 × 10^6
# [12] = chlorhexidine 0.15 μg/ml, control 1.4
# [13] = CSP 40 μg/ml, chlorhexidine 0.15 μg/ml, control 1.4 × 10^6
# [14] = triclosan 25 μg/ml, control 0.33
# [15] = triclosan 25 μg/ml, control 1.58
# [16] = CSP 40 μg/ml, triclosan 500 μg/ml, control 6.8 × 10^5
# [17] = xylitol 15.2 mg/ml, control 0.37
# [18] = xylitol 15.2 mg/ml, control 0.78
# [19] = CSP 40 μg/ml, citric acid 1200 μg/ml, control 3.4 × 10^5
# [20] = CSP 40 μg/ml, oleanolic acid 250 μg/ml, control 4 × 10^5
# [21] = CSP 40 μg/ml, sodium fluoride 250 μg/ml, control 2.6 × 10^5
# [22] = citric acid 1.2 mg/ml, control 0.34
# [23] = sodium fluoride 600 μg/ml, control 0.40
# [24] = citric acid 1.2 mg/ml, control 1.23
# [25] = sodium fluoride 600 μg/ml, control 0.93
# [26] = citric acid 1200 μg/ml, control 1.7
# [27] = sodium fluoride 800 μg/ml, control 2.9
compound,measurement,setting,value
"O=C(O[C@@H]1Cc2c(O)cc(O)cc2O[C@@H]1c1cc(O)c(O)c(O)c1)c1cc(O)c(O)c(O)c1 [EGCg, Epigallocatechin gallate]",Growth (OD @ 600 nm),"S. mutans UA159 [1]; EGCg 150 μg/ml, control 0.32",0.08 OD
same,Biofilm (OD @ 630 nm),"S. mutans UA159 [2]; EGCg 150 μg/ml, control 1.52",0.41 OD
"O=C([O-])CC(O)(CC(=O)[O-])C(=O)[O-].O=C([O-])CC(O)(CC(=O)[O-])C(=O)[O-].[Zn+2].[Zn+2].[Zn+2] [Zinc citrate, zinc citrate]",CPU,[3]; [6],0.8 × 10^5 CFU
"Cc1c(OCC(F)(F)F)ccnc1C[S+]([O-])c1nc2ccccc2[nH]1 (stereo not drawn) [Lansoprazole, lansoprazole, reference compound]",Growth (OD @ 600 nm),S. mutans UA159 [1]; [7],0.4 OD
same,Biofilm (OD @ 630 nm),S. mutans UA159 [2]; [8],1.35 OD
same,CPU,[3]; [9],1 × 10^6 CFU
same,CFU × 10^6,[4]; [10],6.2 CFU × 10^6
nisin,Growth (OD @ 600 nm),"S. mutans UA159 [1]; nisin 80 μg/ml, control 0.36",0.23 OD
same,Biofilm (OD @ 630 nm),"S. mutans UA159 [2]; nisin 80 μg/ml, control 1.03",0.6 OD
same,CFU × 10^6,"[5]; nisin 80 μg/ml, control 2.8",3.0 CFU × 10^6
same,CPU,[3]; [11],1 × 10^6 CFU
"[H]/N=C(\N/C(=N/[H])NCCCCCCNC(=N)NC(=N)Nc1ccc(Cl)cc1)Nc1ccc(Cl)cc1 [CHX, Chlorhexidine, reference compound]",Growth (OD @ 600 nm),"S. mutans UA159 [1]; CHX 0.154 μg/ml, control 0.39",0.39 OD
same,Biofilm (OD @ 630 nm),"S. mutans UA159 [2]; CHX 0.154 μg/ml, control 0.88",1.00 OD
same,CFU × 10^6,[5]; [12],1.9 CFU × 10^6
same,CPU,[3]; [13],2 × 10^6 CFU
"Oc1cc(Cl)ccc1Oc1ccc(Cl)cc1Cl [Triclosan, triclosan, reference compound]",Growth (OD @ 600 nm),S. mutans UA159 [1]; [14],0.33 OD
same,Biofilm (OD @ 630 nm),S. mutans UA159 [2]; [15],1.69 OD
same,CPU,[3]; [16],7 × 10^2 CFU
"OC[C@@H](O)[C@H](O)[C@@H](O)CO [Xylitol, xylitol]",Growth (OD @ 600 nm),S. mutans UA159 [1]; [17],0.07 OD
same,Biofilm (OD @ 630 nm),S. mutans UA159 [2]; [18],0.32 OD
SGSLSTFFRLFNRSFTQALGK (Streptococcus mutans) [CSP],CPU,"[3]; CSP 40 μg/ml, chitosan 0.25 μg/ml, control 7.6 × 10^5",2.2 × 10^5 CFU
same,CPU,[3]; [13],0.1 × 10^6 CFU
same,CPU,[3]; [19],2 × 10^4 CFU
same,CPU,[3]; [9],1.4 × 10^6 CFU
same,CPU,[3]; [20],2 × 10^4 CFU
same,CPU,[3]; [21],1.7 × 10^5 CFU
same,CPU,[3]; [16],7 × 10^4 CFU
same,CPU,[3]; [6],0.5 × 10^5 CFU
same,CPU,[3]; [11],1 × 10^6 CFU
"SGSLSTFFRLFNASFTQALGK (Synthetic E2) [Peptide E2, second arginine from the C' terminus substituted with alanine]",Growth (OD @ 600 nm),"S. mutans UA159 [1]; CHX 0.154 μg/ml, control 0.39",0.11 OD
same,Growth (OD @ 600 nm),"S. mutans UA159 [1]; EGCg 150 μg/ml, control 0.32",0.22 OD
same,Growth (OD @ 600 nm),"S. mutans UA159 [1]; OA 2 μg/ml, control 0.4",0.26 OD
same,Growth (OD @ 600 nm),"S. mutans UA159 [1]; chitosan 1 μg/ml, control 0.37",0.28 OD
same,Growth (OD @ 600 nm),S. mutans UA159 [1]; [22],0.26 OD
same,Growth (OD @ 600 nm),S. mutans UA159 [1]; [7],0.2 OD
same,Growth (OD @ 600 nm),"S. mutans UA159 [1]; nisin 80 μg/ml, control 0.36",0.11 OD
same,Growth (OD @ 600 nm),S. mutans UA159 [1]; [23],0.23 OD
same,Growth (OD @ 600 nm),S. mutans UA159 [1]; [14],0.12 OD
same,Growth (OD @ 600 nm),S. mutans UA159 [1]; [17],0.12 OD
same,Biofilm (OD @ 630 nm),"S. mutans UA159 [2]; CHX 0.154 μg/ml, control 0.88",0.34 OD
same,Biofilm (OD @ 630 nm),"S. mutans UA159 [2]; EGCg 150 μg/ml, control 1.52",0.92 OD
same,Biofilm (OD @ 630 nm),"S. mutans UA159 [2]; OA 2 μg/ml, control 0.8",0.33 OD
same,Biofilm (OD @ 630 nm),"S. mutans UA159 [2]; chitosan 1 μg/ml, control 2.10",1.18 OD
same,Biofilm (OD @ 630 nm),S. mutans UA159 [2]; [24],0.54 OD
same,Biofilm (OD @ 630 nm),S. mutans UA159 [2]; [8],0.4 OD
same,Biofilm (OD @ 630 nm),"S. mutans UA159 [2]; nisin 80 μg/ml, control 1.03",0.24 OD
same,Biofilm (OD @ 630 nm),S. mutans UA159 [2]; [25],0.16 OD
same,Biofilm (OD @ 630 nm),S. mutans UA159 [2]; [15],1.00 OD
same,Biofilm (OD @ 630 nm),S. mutans UA159 [2]; [18],0.34 OD
same,CFU × 10^6,[5]; [12],0.9 CFU × 10^6
same,CFU × 10^6,"[5]; nisin 80 μg/ml, control 2.8",2.5 CFU × 10^6
same,CFU × 10^6,"[4]; chitosan 1 μg/ml, control 1.4",0.1 CFU × 10^6
same,CFU × 10^6,[4]; [26],0.6 CFU × 10^6
same,CFU × 10^6,[4]; [10],4.3 CFU × 10^6
same,CFU × 10^6,[4]; [27],1 CFU × 10^6
"O=C(O)CC(O)(CC(=O)O)C(=O)O [Citric acid, citric acid]",Growth (OD @ 600 nm),S. mutans UA159 [1]; [22],0.02 OD
same,Biofilm (OD @ 630 nm),S. mutans UA159 [2]; [24],0.38 OD
same,CPU,[3]; [19],8 × 10^4 CFU
same,CFU × 10^6,[4]; [26],0.05 CFU × 10^6
"CC1(C)CC[C@]2(C(=O)O)CC[C@]3(C)C(=CC[C@@H]4[C@@]5(C)CC[C@H](O)C(C)(C)[C@@H]5CC[C@]43C)[C@@H]2C1 [OA, Oleanolic acid]",Growth (OD @ 600 nm),"S. mutans UA159 [1]; OA 2 μg/ml, control 0.4",0.32 OD
same,Biofilm (OD @ 630 nm),"S. mutans UA159 [2]; OA 2 μg/ml, control 0.8",0.94 OD
same,CPU,[3]; [20],1.7 × 10^5 CFU
"[F-].[Na+] [Sodium fluoride, sodium fluoride, reference compound]",Growth (OD @ 600 nm),S. mutans UA159 [1]; [23],0.02 OD
same,Biofilm (OD @ 630 nm),S. mutans UA159 [2]; [25],0.12 OD
same,CPU,[3]; [21],7 × 10^5 CFU
same,CFU × 10^6,[4]; [27],2.7 CFU × 10^6
